Values of other authors, collected in paper PMC10080691, “Enzyme-Responsive Double-Locked Photodynamic Molecular Beacon for Targeted Photodynamic Anticancer Therapy” (Journal of the American Chemical Society, 2023).

Assays:
[1] = in DMF; reference standard value; cited from earlier work
Source text: The singlet oxygen generation efficiency of 1 was then studied and compared with that of 8, 14, and ZnPc in all these media using 1,3-diphenylisobenzofuran (DPBF) as the singlet oxygen probe.[67] The absorbance of DPBF’s absorption at 415 nm (in DMF) or 417 nm (in PBS and the buffer) was monitored during light irradiation (λ > 610 nm). Figures S4–S6 show the changes in the absorption spectra of the mixtures in DMF, PBS, and the buffer, respectively, upon irradiation. It can be seen that in all these media while 8 and ZnPc could effectively sensitize the formation of singlet oxygen to induce su ...

[2] = in DMF; reference standard value; cited from earlier work; remark: listed apart in the source
Source text: The electronic absorption and fluorescence spectra of PMB 1 were first recorded in DMF and compared with those of the components 8 and 11, as well as the non-cleavable analogue 14 (Figure S2 and Table 1). […] In ...

Question: Which results are given for `[Zn+2].c1ccc2c(c1)-c1nc-2nc2[n-]c(nc3nc([n-]c4nc(n1)-c1ccccc1-4)-c1ccccc1-3)c1ccccc21` [ZnPc, zinc(II) phthalocyanine]?
Answer: ΦΔ (singlet oxygen quantum yield) of reference [1]: 0.56; ΦF (fluorescence quantum yield) of reference [2]: 0.28
